Measurements reported in US4490291A, “Nonapeptide amides” (Takeda Chemical Industries, Ltd., priority 1973, dated 1984).
Non-standard residues stand in square brackets, D forms with d. Residues, ends and D or L forms follow the SMILES beside them. pGlu = O=C1CC[C@@H](C(=O)O)N1

The molecules below were run on Sprague-Dawley rats (4-day cycling female) (assay: Ovulation-inducing activity in rats, ED50 compared with LH-RH). Conditions: product of process (III) compared with product of process (I) of Example 5(c).
Assay type: in vivo
Experimental: Ovulation-inducing activity is determined in Sprague-Dawley rats (4-day cycling female) in which the injection of the compound was made subcutaneously at 14:30 on the day of diestrous, and the ovulated ova in the ampilla of the oviduct were examined on the morning of the next day. The results (ED50) were compared with that (ED50) of LH-RH itself. The assay results on the object compounds are as follows.
`CCNC(=O)[C@@H]1CCCN1C(=O)[C@H](CCCNC(=N)N)NC(=O)[C@H](CC(C)C)NC(=O)[C@@H](C)NC(=O)[C@H](Cc1ccccc1)NC(=O)[C@H](CO)NC(=O)[C@H](Cc1c[nH]c2ccccc12)NC(=O)[C@H](Cc1c[nH]cn1)NC(=O)[C@@H]1CCC(=O)N1` [His Phe Leu ethyl, (Pyr)Glu--His--Trp--Ser--Phe--(D)--Ala--Leu--Arg--Pro--NH--CH2 --CH3] ([pGlu]HWSF[dA]LRP-NHEt) was tested, and the “ED50 value of ovulation inducing activity” value was “identical”.

Same assay, conditions: subcutaneous injection at 14:30 on the day of diestrous; ovulated ova in oviduct examined next morning; natural LH-RH control = 100%
`CCNC(=O)[C@@H]1CCCN1C(=O)[C@H](CCCNC(=N)N)NC(=O)[C@@H](NC(=O)[C@@H](C)NC(=O)[C@H](Cc1ccccc1)NC(=O)[C@H](CO)NC(=O)[C@H](Cc1c[nH]c2ccccc12)NC(=O)[C@H](Cc1c[nH]cn1)NC(=O)[C@@H]1CCC(=O)N1)[C@@H](C)CC` [His Phe Ile ethyl, (Pyr)Glu--His--Trp--Ser--Phe--(D)--Ala--Ile--Arg--Pro--NHCH2 CH3] ([pGlu]HWSF[dA]IRP-NHEt) was tested, and the “Relative ovulation-inducing activity (ED50 compared with that of LH-RH itself)” value (shortened to “Relative ovulation-inducing activity”) was 3,200%.
For `CCNC(=O)[C@@H]1CCCN1C(=O)[C@H](CCCNC(=N)N)NC(=O)[C@H](CC(C)C)NC(=O)[C@@H](C)NC(=O)[C@H](Cc1ccccc1)NC(=O)[C@H](CO)NC(=O)[C@H](Cc1c[nH]c2ccccc12)NC(=O)[C@H](Cc1c[nH]cn1)NC(=O)[C@@H]1CCC(=O)N1` [His Phe Leu ethyl, (Pyr)Glu--His--Trp--Ser--Phe--(D)--Ala--Leu--Arg--Pro--NH--CH2 --CH3] ([pGlu]HWSF[dA]LRP-NHEt), the “Relative ovulation-inducing activity” value was 5,810%.
`CCNC(=O)[C@@H]1CCCN1C(=O)[C@H](CCCNC(=N)N)NC(=O)[C@H](CC(C)C)NC(=O)[C@@H](C)NC(=O)[C@H](Cc1ccc(O)cc1)NC(=O)[C@H](CO)NC(=O)[C@H](Cc1c[nH]c2ccccc12)NC(=O)[C@H](Cc1c[nH]cn1)NC(=O)[C@@H]1CCC(=O)N1` [His Tyr Leu ethyl, (Pyr)Glu--His--Trp--Ser--Tyr--(D)--Ala--Leu--Arg--Pro--NH--CH2 --CH3] was tested, and the “Relative ovulation-inducing activity” value was 6,100%.
In the case of `CCCC[C@H](NC(=O)[C@@H](C)NC(=O)[C@H](Cc1ccc(O)cc1)NC(=O)[C@H](CO)NC(=O)[C@H](Cc1c[nH]c2ccccc12)NC(=O)[C@H](Cc1c[nH]cn1)NC(=O)[C@@H]1CCC(=O)N1)C(=O)N[C@@H](CCCNC(=N)N)C(=O)N1CCC[C@H]1C(=O)NCC` [His Tyr Nle ethyl, (Pyr)Glu--His--Trp--Ser--Tyr--(D)--Ala--Nle--Arg--Pro--NHCH2 CH3], the “Relative ovulation-inducing activity” value is reported as 4,800%.
In the case of `CCNC(=O)[C@@H]1CCCN1C(=O)[C@H](CCCNC(=N)N)NC(=O)[C@H](CC(C)C)NC(=O)[C@@H](C)NC(=O)[C@H](Cc1ccc(O)cc1)NC(=O)[C@H](CO)NC(=O)[C@H](Cc1c[nH]c2ccccc12)NC(=O)[C@H](Cc1ccc(O)cc1)NC(=O)[C@@H]1CCC(=O)N1` [Tyr Tyr Leu ethyl, (Pyr)Glu--Tyr--Trp--Ser--Tyr--(D)--Ala--Leu--Arg--Pro--NHCH2 CH3] ([pGlu]YWSY[dA]LRP-NHEt), the “Relative ovulation-inducing activity” value is reported as 2,010%.
`CC(C)C[C@H](NC(=O)CNC(=O)[C@H](Cc1ccc(O)cc1)NC(=O)[C@H](CO)NC(=O)[C@H](Cc1c[nH]c2ccccc12)NC(=O)[C@H](Cc1c[nH]cn1)NC(=O)[C@@H]1CCC(=O)N1)C(=O)N[C@@H](CCCNC(=N)N)C(=O)N1CCC[C@H]1C(=O)NCC(N)=O` [natural LH--RH, (Pyr)Glu-His-Trp-Ser-Tyr-Gly-Leu-Arg-Pro-Gly-NH2, reference compound] was tested, and the “Relative ovulation-inducing activity” value was 100%.
“(Pyr)Glu--p--NH2 --Phe--Trp--Ser--Tyr--(D)--Ala--Leu--Arg--Pro--NH--CH2 --CH3 [p-NH2 --Phe Tyr Leu ethyl]” was tested, and the “Relative ovulation-inducing activity” value was 2,150%.
